Experiments:
Test in all cases: relative viability (nuclei count vs DMSO), 5 days (fraction); higher = more cells survive
[1] = system: 201T
Procedure, shortened: (§1)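 Relative viability equals treated-well nuclei counts divided by vehicle-well nuclei counts. Counts came from 4× images of lung cancer cell lines grown in 1536-well plates for 5 days after pin-tool dosing on the day after seeding. Dosing used one drug alone or a fixed anchor-drug dose plus five library-drug doses (not always all listed) in √10 steps, and values are medians of duplicate plates.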

[2] = system: BEN
Procedure, shortened: as §1

[3] = system: EKVX
Procedure, shortened: as §1

[4] = system: HCC-15
Procedure, shortened: as §1

[5] = system: HCC-366
Procedure, shortened: as §1

[6] = system: HCC-78
Procedure, shortened: as §1

[7] = system: HCC-827
Procedure, shortened: as §1

[8] = system: LC-2-ad
Procedure, shortened: as §1

[9] = system: LK-2
Procedure, shortened: as §1

[10] = system: LU99A
Procedure, shortened: as §1

[11] = system: NCI-H1648
Procedure, shortened: as §1

[12] = system: NCI-H1734
Procedure, shortened: as §1

[13] = system: NCI-H1755
Procedure, shortened: as §1

[14] = system: NCI-H1915
Procedure, shortened: as §1

[15] = system: NCI-H1944
Procedure, shortened: as §1

[16] = system: NCI-H2347
Procedure, shortened: as §1

[17] = system: NCI-H441
Procedure, shortened: as §1

[18] = system: PC-3 [JPC-3]
Procedure, shortened: as §1

[19] = system: RERF-LC-KJ
Procedure, shortened: as §1

[20] = system: SW 900
Procedure, shortened: as §1

[21] = system: COR-L 105
Procedure, shortened: as §1

[22] = system: COR-L23
Procedure, shortened: as §1

[23] = system: NCI-H1650
Procedure, shortened: as §1

SMILES: Oc1nc(-c2ccc(C(F)(F)F)cc2)nc2c1CSCC2 [XAV939] + NC(=O)Nc1cc(-c2cccc(F)c2)sc1C(=O)N[C@H]1CCCNC1 [AZD7762] (partner 0.2 µM)
- relative viability ([1]; first compound 0.08 µM): 0.781
- relative viability ([1]; first compound 0.253 µM): 0.497
- relative viability ([1]; first compound 0.8 µM): 0.724
- relative viability ([1]; first compound 2.53 µM): 0.64
- relative viability ([2]; first compound 0.08 µM): 0.629
- relative viability ([2]; first compound 0.253 µM): 0.651
- relative viability ([2]; first compound 0.8 µM): 0.619
- relative viability ([2]; first compound 2.53 µM): 0.597
- relative viability ([3]; first compound 0.08 µM): 0.685
- relative viability ([3]; first compound 0.253 µM): 0.646
- relative viability ([3]; first compound 0.8 µM): 0.362
- relative viability ([3]; first compound 2.53 µM): 0.56
- relative viability ([4]; first compound 0.08 µM): 1.31
- relative viability ([4]; first compound 0.253 µM): 1.15
- relative viability ([4]; first compound 0.8 µM): 1.21
- relative viability ([4]; first compound 2.53 µM): 1.08
- relative viability ([5]; first compound 0.08 µM): 0.423
- relative viability ([5]; first compound 0.253 µM): 0.211
- relative viability ([5]; first compound 0.8 µM): 0.188
- relative viability ([5]; first compound 2.53 µM): 0.132
- relative viability ([6]; first compound 0.08 µM): 0.595
- relative viability ([6]; first compound 0.253 µM): 0.514
- relative viability ([6]; first compound 0.8 µM): 0.648
- relative viability ([6]; first compound 2.53 µM): 0.527
- relative viability ([7]; first compound 0.08 µM): 0.228
- relative viability ([7]; first compound 0.253 µM): 0.195
- relative viability ([7]; first compound 0.8 µM): 0.213
- relative viability ([7]; first compound 2.53 µM): 0.177
- relative viability ([8]; first compound 0.08 µM): 0.865
- relative viability ([8]; first compound 0.253 µM): 0.711
- relative viability ([8]; first compound 0.8 µM): 0.806
- relative viability ([8]; first compound 2.53 µM): 0.724
- relative viability ([9]; first compound 0.08 µM): 0.375
- relative viability ([9]; first compound 0.253 µM): 0.429
- relative viability ([9]; first compound 0.8 µM): 0.344
- relative viability ([9]; first compound 2.53 µM): 0.238
- relative viability ([10]; first compound 0.08 µM): 0.495
- relative viability ([10]; first compound 0.253 µM): 0.394
- relative viability ([10]; first compound 0.8 µM): 0.339
- relative viability ([10]; first compound 2.53 µM): 0.32
- relative viability ([11]; first compound 0.253 µM): 0.501
- relative viability ([11]; first compound 0.8 µM): 0.699
- relative viability ([11]; first compound 2.53 µM): 0.598
- relative viability ([12]; first compound 0.08 µM): 0.617
- relative viability ([12]; first compound 0.253 µM): 0.515
- relative viability ([12]; first compound 0.8 µM): 0.59
- relative viability ([12]; first compound 2.53 µM): 0.51
- relative viability ([13]; first compound 0.08 µM): 0.394
- relative viability ([13]; first compound 0.253 µM): 0.501
- relative viability ([13]; first compound 0.8 µM): 0.443
- relative viability ([13]; first compound 2.53 µM): 0.458
- relative viability ([14]; first compound 0.08 µM): 0.898
- relative viability ([14]; first compound 0.253 µM): 0.674
- relative viability ([14]; first compound 0.8 µM): 0.693
- relative viability ([14]; first compound 2.53 µM): 0.665
- relative viability ([15]; first compound 0.08 µM): 0.589
- relative viability ([15]; first compound 0.253 µM): 0.539
- relative viability ([15]; first compound 0.8 µM): 0.477
- relative viability ([15]; first compound 2.53 µM): 0.382
- relative viability ([16]; first compound 0.08 µM): 0.803
- relative viability ([16]; first compound 0.253 µM): 0.612
- relative viability ([16]; first compound 0.8 µM): 0.796
- relative viability ([16]; first compound 2.53 µM): 0.58
- relative viability ([17]; first compound 0.08 µM): 1.08
- relative viability ([17]; first compound 0.253 µM): 0.947
- relative viability ([17]; first compound 0.8 µM): 1.27
- relative viability ([17]; first compound 2.53 µM): 1.27
- relative viability ([18]; first compound 0.253 µM): 0.691
- relative viability ([18]; first compound 0.8 µM): 0.753
- relative viability ([18]; first compound 2.53 µM): 0.801
- relative viability ([19]; first compound 0.08 µM): 0.925
- relative viability ([19]; first compound 0.253 µM): 0.711
- relative viability ([19]; first compound 0.8 µM): 0.848
- relative viability ([19]; first compound 2.53 µM): 0.69
- relative viability ([20]; first compound 0.253 µM): 0.616
- relative viability ([20]; first compound 0.8 µM): 0.599
- relative viability ([20]; first compound 2.53 µM): 0.501

SMILES: C=C1C(=O)O[C@@H](CCCCCCCC)[C@@H]1C(=O)O [C-75] + CC1(C)CCC(c2ccc(Cl)cc2)=C(CN2CCN(c3ccc(C(=O)NS(=O)(=O)c4ccc(N[C@H](CCN5CCOCC5)CSc5ccccc5)c(S(=O)(=O)C(F)(F)F)c4)cc3)CC2)C1 [Navitoclax] (partner 0.5 µM)
- relative viability ([1]; first compound 0.08 µM): 1.23
- relative viability ([1]; first compound 0.253 µM): 1.27
- relative viability ([1]; first compound 0.8 µM): 1.23
- relative viability ([1]; first compound 2.53 µM): 1.17
- relative viability ([1]; first compound 8 µM): 1.21
- relative viability ([2]; first compound 0.08 µM): 0.0695
- relative viability ([2]; first compound 0.253 µM): 0.0673
- relative viability ([2]; first compound 0.8 µM): 0.0656
- relative viability ([2]; first compound 2.53 µM): 0.0589
- relative viability ([2]; first compound 8 µM): 0.0596
- relative viability ([21]; first compound 0.08 µM): 0.81
- relative viability ([21]; first compound 0.253 µM): 0.828
- relative viability ([21]; first compound 0.8 µM): 0.573
- relative viability ([21]; first compound 2.53 µM): 0.788
- relative viability ([21]; first compound 8 µM): 0.562
- relative viability ([22]; first compound 0.08 µM): 0.966
- relative viability ([22]; first compound 0.253 µM): 0.884
- relative viability ([22]; first compound 0.8 µM): 0.955
- relative viability ([22]; first compound 2.53 µM): 0.989
- relative viability ([22]; first compound 8 µM): 0.964
- relative viability ([3]; first compound 0.08 µM): 0.944
- relative viability ([3]; first compound 0.253 µM): 0.893
- relative viability ([3]; first compound 0.8 µM): 0.831
- relative viability ([3]; first compound 2.53 µM): 0.864
- relative viability ([3]; first compound 8 µM): 1.03
- relative viability ([4]; first compound 0.08 µM): 0.692
- relative viability ([4]; first compound 0.253 µM): 0.725
- relative viability ([4]; first compound 0.8 µM): 0.686
- relative viability ([4]; first compound 2.53 µM): 0.59
- relative viability ([4]; first compound 8 µM): 0.733
- relative viability ([5]; first compound 0.08 µM): 1.03
- relative viability ([5]; first compound 0.253 µM): 1.1
- relative viability ([5]; first compound 0.8 µM): 0.943
- relative viability ([5]; first compound 8 µM): 0.833
- relative viability ([6]; first compound 0.08 µM): 0.791
- relative viability ([6]; first compound 0.253 µM): 0.834
- relative viability ([6]; first compound 0.8 µM): 0.75
- relative viability ([6]; first compound 2.53 µM): 0.708
- relative viability ([6]; first compound 8 µM): 0.864
- relative viability ([7]; first compound 0.08 µM): 1.02
- relative viability ([7]; first compound 0.253 µM): 0.884
- relative viability ([7]; first compound 0.8 µM): 0.952
- relative viability ([7]; first compound 2.53 µM): 0.985
- relative viability ([7]; first compound 8 µM): 1.04
- relative viability ([8]; first compound 0.08 µM): 0.53
- relative viability ([8]; first compound 0.253 µM): 0.56
- relative viability ([8]; first compound 0.8 µM): 0.479
- relative viability ([8]; first compound 8 µM): 0.474
- relative viability ([9]; first compound 0.08 µM): 0.819
- relative viability ([9]; first compound 0.253 µM): 0.883
- relative viability ([9]; first compound 0.8 µM): 1.02
- relative viability ([9]; first compound 2.53 µM): 0.769
- relative viability ([9]; first compound 8 µM): 0.648
- relative viability ([10]; first compound 0.08 µM): 0.795
- relative viability ([10]; first compound 0.253 µM): 0.845
- relative viability ([10]; first compound 0.8 µM): 0.695
- relative viability ([10]; first compound 2.53 µM): 0.588
- relative viability ([10]; first compound 8 µM): 0.594
- relative viability ([23]; first compound 0.08 µM): 1.22
- relative viability ([23]; first compound 0.253 µM): 1.36
- relative viability ([23]; first compound 0.8 µM): 1.22
- relative viability ([23]; first compound 2.53 µM): 1.36
- relative viability ([23]; first compound 8 µM): 0.97
- relative viability ([12]; first compound 0.08 µM): 0.828
- relative viability ([12]; first compound 0.253 µM): 0.778
- relative viability ([12]; first compound 0.8 µM): 0.815
- relative viability ([12]; first compound 2.53 µM): 0.629
- relative viability ([12]; first compound 8 µM): 0.754
- relative viability ([13]; first compound 0.08 µM): 0.945
- relative viability ([13]; first compound 0.253 µM): 0.935
- relative viability ([13]; first compound 0.8 µM): 1.02
- relative viability ([13]; first compound 2.53 µM): 0.711
- relative viability ([13]; first compound 8 µM): 0.957
- relative viability ([14]; first compound 0.08 µM): 0.818
- relative viability ([14]; first compound 0.253 µM): 0.785
- relative viability ([14]; first compound 0.8 µM): 0.774
- relative viability ([14]; first compound 2.53 µM): 0.386
- relative viability ([14]; first compound 8 µM): 0.781
- relative viability ([15]; first compound 0.08 µM): 1.03
- relative viability ([15]; first compound 0.253 µM): 0.896
- relative viability ([15]; first compound 0.8 µM): 1.01
- relative viability ([15]; first compound 8 µM): 0.998
- relative viability ([16]; first compound 0.08 µM): 0.688
- relative viability ([16]; first compound 0.253 µM): 1.03
- relative viability ([16]; first compound 0.8 µM): 0.755
- relative viability ([16]; first compound 2.53 µM): 0.758
- relative viability ([16]; first compound 8 µM): 0.714
- relative viability ([17]; first compound 0.08 µM): 0.566
- relative viability ([17]; first compound 0.253 µM): 0.618
- relative viability ([17]; first compound 0.8 µM): 0.599
- relative viability ([17]; first compound 2.53 µM): 0.401
- relative viability ([17]; first compound 8 µM): 0.488
- relative viability ([18]; first compound 0.08 µM): 0.853
- relative viability ([18]; first compound 0.253 µM): 0.841
- relative viability ([18]; first compound 0.8 µM): 0.841
- relative viability ([18]; first compound 2.53 µM): 0.826
- relative viability ([18]; first compound 8 µM): 0.874
- relative viability ([19]; first compound 0.08 µM): 0.91
- relative viability ([19]; first compound 0.253 µM): 1.47
- relative viability ([19]; first compound 0.8 µM): 0.881
- relative viability ([19]; first compound 2.53 µM): 0.843
- relative viability ([19]; first compound 8 µM): 0.802

Reference: the supplement of paper PMC10307832
